This passage reports Survival of cell results from patent US7211589B2, “Atisane compounds and use thereof” (Eisai R&D Management Co., Ltd., priority 2001, dated 2007).

The structures appear in SMILES notation.

The subject of experiment [1] is cultured cerebral cortex cells. The experiment in a line: Effect on glutamate-induced neurotoxicity of cultured cerebral cortex cell (trypan blue survival). It counts as cell-based. The settings on record: test substance 10 μM, 1 h pre-incubation, then glutamic acid 500 μM for 1 h; percentage of living (trypan blue unstained) cells; sham 88.79, glutamic acid alone 26.72. The method, then: Effect of Atisane Derivative on Glutamate-induced Neurotoxicity of Cultured Cerebral Cortex Cell
Effects of the compounds according to the present invention on survival of cells were studied in the following manners.
(1) After dissolving the compound according to the present invention (test compound) in a small amount of methanol, 2.0 mL serum-free normal medium (Eagle's MEM medium raw powder 9.4 g; NaHCO3 2.0 g; L-glutamine 0.29 g; glucose 1.0 g; and HEPES 2.38 g are dissolved in purified water so that the final volume is 1000 mL) was added so as to make the concentration at 10 μM. After mixing well by vortex, the sample was used for the following bioassay. (2) In Eagle liquid at 37° C., cultured cerebral cortex cells were incubated in the medium containing the test sample (1) for 1 hour, and glutamic acid was added to the medium. After incubating for another 1 hour, the culture was stained with 1.5% trypan blue solution for 10 minutes. […] Using this property, in the present test, the number of cells were counted while determining the cells not having stained by trypan blue as living cells and the cells […] as dead cells. […] More than 200 cells were counted per one cover slip, and a percentage of number of living cells with respect to the total number of counted cells was calculated as survival. […]

Experiment [2] concerns cultured cerebral cortex cells. In words: Effect on nitrogen monoxide (NO)-induced neurotoxicity of cultured cerebral cortex cell (trypan blue survival). The settings on record: test substance 10 μM simultaneously with S-nitrosocysteine 100 μM; percentage of living cells; sham 91.92, S-nitrosocysteine alone 17.30. It counts as cell-based. The procedure:
Effect of Atisane Derivative on Nitrogen Monoxide (NO)-induced Neurotoxicity of Cultured Cerebral Cortex Cell
(1) After dissolving the compound according to the present invention (test compound) in a small amount of methanol, 2.0 mL serum-free normal medium (Eagle's MEM medium raw powder 9.4 g; NaHCO3 2.0 g; […]; glucose 1.0 g; and HEPES 2.38 g are dissolved in purified water so that the final volume is 1000 mL) was added to make the concentration at 10 μM. After mixing well by vortex, the sample was used for the following bioassay. (2) In Eagle liquid at 37° C., cultured cerebral cortex cells were incubated in the medium containing S-nitrosocysteine for 1 hour. At this time, the test sample (1) was treated simultaneously with S-nitrosocysteine. After incubating for another 1 hour, the culture was stained with 1.5% trypan blue solution for 10 minutes. After completion of the staining, cells were fixed in ice-cooled 10% neutral-buffered formalin solution, rinsed with saline, and numbers of living cells and dead cells were counted. The test was conducted using 5 cover slips for every drug treatment, and one group contained 5 cases. More than 200 cells were counted per one cover slip, and a percentage of number of living cells with respect to the total number of counted cells was calculated as survival. (3) Results

In the case of `C[S+]([O-])C[C@H]1[C@H]2CC[C@@]3(CC[C@H]4[C@@](C)(CCC[C@@]4(C)C(=O)O)[C@@H]3C2)[C@@H]1O` (mixture of isomers) [Serofendic acid isomers (1), (2) (approx. 1:2) mixture, ent-15β-Hydroxy-17-methylsulfinyl-16α-atisane-19-oic acid], the Survival of cell in experiment [1] is 65.92%; in experiment [2], 76.02%.
